This assay has as its target hPAD4 (Homo sapiens, UniProt Q9UM07). Nature of the assay: hPAD4 RFMS (RapidFire mass spectrometry) PAD4 inhibition assay.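 As to hPAD4 RFMS pIC50: grade E means pIC50 at most 4 and F means pIC50 4.0 to 5.0.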 The class given is biochemical. The settings on record: hPAD4 enzyme, RFMS readout; for IC50: pIC50=−log(IC50), read-out: hPAD4 RFMS pIC50 (converted); for pIC50: read-out: hPAD4 RFMS IC50. On the procedure:
Compounds of the present invention were assayed as inhibitors of PAD4 using the assay protocol described below.
Compound stock solutions were stored at RT. […] Final assay conditions were as follows:
Total incubation time: 65 mins at 37° C.
Stop solution: 40 μl 5% TCA in ACN
The compound numbers correspond to the compound numbers in Table 1. […] The term pIC50=−log(IC50). […] “NA” stands for “not assayed.”

pIC50: −log10 of the molar value. Like-named read-outs stand apart in the source and are kept apart here.

Sequence of hPAD4 (Q9UM07 whole entry): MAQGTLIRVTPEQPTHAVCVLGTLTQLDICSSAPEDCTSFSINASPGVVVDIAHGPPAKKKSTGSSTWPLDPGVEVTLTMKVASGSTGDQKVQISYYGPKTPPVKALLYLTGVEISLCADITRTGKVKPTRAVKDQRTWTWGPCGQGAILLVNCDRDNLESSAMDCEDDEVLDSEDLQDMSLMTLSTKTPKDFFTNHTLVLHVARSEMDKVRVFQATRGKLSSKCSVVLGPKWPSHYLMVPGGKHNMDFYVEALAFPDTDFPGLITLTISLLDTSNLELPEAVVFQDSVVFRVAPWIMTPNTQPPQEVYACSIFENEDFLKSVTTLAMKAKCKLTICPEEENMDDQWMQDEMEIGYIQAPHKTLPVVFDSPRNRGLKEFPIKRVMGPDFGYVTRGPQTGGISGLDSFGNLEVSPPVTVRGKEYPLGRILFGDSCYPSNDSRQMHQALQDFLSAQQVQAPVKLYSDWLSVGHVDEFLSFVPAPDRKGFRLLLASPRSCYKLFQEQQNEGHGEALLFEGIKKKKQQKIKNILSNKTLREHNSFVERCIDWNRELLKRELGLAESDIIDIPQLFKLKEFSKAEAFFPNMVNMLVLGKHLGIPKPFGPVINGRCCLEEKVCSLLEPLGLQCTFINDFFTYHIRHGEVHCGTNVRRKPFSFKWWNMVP

With `COCCn1c(-c2nc3cc(C(=O)N4C[C@H](N)CC[C@@H]4C)cc(OC)c3n2C)cc2cccnc21` (racemic) [Compound I-170], the IC50 was 1 to 10 µM and the pIC50 was 5.30 to 6.00.

Consider `CCn1c(-c2nc3cc(C(=O)N4CC[C@@H]5CCN[C@@H]5C4)cc(OC)c3n2C)cc2cccnc21` (single isomer, unassigned) [Compound I-3], for which the IC50 was 1 to 10 µM and the pIC50 was 5.30 to 6.00.

Consider `CCn1c(-c2nc3cc(C(=O)N4CC[C@H]5CCN[C@H]5C4)cc(OC)c3n2C)cc2cccnc21` (single isomer, unassigned) [Compound I-14], for which the IC50 is 10 to 100 µM and the pIC50 is less than 5.00.

As to `CCn1c(-c2nc3cc(C(=O)N4CC[C@H]5CCN[C@H]5C4)ccc3n2C)cc2cccnc21` [Compound I-1], the IC50 is 10 to 100 µM and the pIC50 was less than 5.00.

With `Cn1c(-c2cc3ccccc3n2CC2CC2)nc2cc(C(=O)N3CC[C@@H]4CCN[C@@H]4C3)ccc21` [Compound I-2], the IC50 was 10 to 100 µM and the pIC50 is less than 5.00.

`COc1cc(C(=O)N2CC[C@@H]3CCN[C@@H]3C2)cc2nc(-c3cc4cncnc4n3CC3CC3)n(C)c12` [Compound I-4, 5-[(3aS,7aS)-octahydro-1H-pyrrolo[2,3-c]pyridine-6-carbonyl]-2-[7-(cyclopropylmethyl)-7H-pyrrolo[2,3-d]pyrimidin-6-yl]-7-methoxy-1-methyl-1H-1,3-benzodiazole]: the IC50 was 10 to 100 µM and the pIC50 is less than 5.00.

`CCn1c(-c2nc3cc(C(=O)N4CC[C@@H]5CCN[C@@H]5C4)ccc3n2C)cc2cccnc21` [Compound I-5]: the IC50 was 10 to 100 µM and the pIC50 was less than 5.00.

Turning to `Cn1c(-c2cc3cccnc3n2CC2CC2)nc2cc(C(=O)N3CCC4CCNC4C3)ccc21` (centres unmarked) [Compound I-6], the IC50 is 1 to 10 µM and the pIC50 was 5.30 to 6.00.

For `Cn1c(-c2cc3ccccc3n2CC2CC2)nc2cc(C(=O)N3CC[C@H]4CCN[C@H]4C3)ccc21` [Compound I-7], the IC50 is less than 1 µM and the pIC50 is more than 6.00.

Turning to `COc1cc(C(=O)N2CCC3CCNC3C2)cc2nc(-c3cc4cccnc4n3CC3CC3)n(C)c12` (centres unmarked) [Compound I-8], the IC50 was less than 1 µM and the pIC50 was more than 6.00.

With `CCn1c(-c2nc3cc(C(=O)N4CCC5CCNC5C4)cc(OC)c3n2C)cc2cccnc21` (centres unmarked) [Compound I-13, 2-{1-ethyl-1H-pyrrolo[2,3-b]pyridin-2-yl}-7-methoxy-1-methyl-5-{octahydro-1H-pyrrolo[2,3-c]pyridine-6-carbonyl}-1H-1,3-benzodiazole], the IC50 was 1 to 10 µM and the pIC50 is 5.30 to 6.00.

Consider `COc1cc(C(=O)N2CCC3CCNC3C2)cc2nc(-c3cc4cncnc4n3CC3CC3)n(C)c12` (centres unmarked) [Compound I-15, 2-[7-(cyclopropylmethyl)-7H-pyrrolo[2,3-d]pyrimidin-6-yl]-7-methoxy-1-methyl-5-{octahydro-1H-pyrrolo[2,3-c]pyridine-6-carbonyl}-1H-1,3-benzodiazole], for which the IC50 is 1 to 10 µM and the pIC50 is 5.00 to 5.30.

Turning to `CCn1c(-c2nc3cc(C(=O)N4CCC5CCNC5C4)ccc3n2C)cc2cccnc21` (centres unmarked) [Compound I-16], the IC50 is 1 to 10 µM and the pIC50 is 5.00 to 5.30.

Take `Cn1c(-c2cc3cccnc3n2CC2CC2)nc2cc(C(=O)N3CC4CC3CN4)ccc21` (centres unmarked) [Compound I-37]: the IC50 was more than 100 µM and the pIC50 was less than 5.00.

Turning to `Cn1c(-c2cc3cccnc3n2CC2CC2)nc2cc(C(=O)N3CC4CNC4C3)ccc21` (centres unmarked) [Compound I-38], the IC50 was more than 100 µM and the pIC50 is less than 5.00.

Regarding `Cn1c(-c2cc3cccnc3n2CC2CC2)nc2cc(C(=O)N3CCC4(CCCN4)C3)ccc21` (centres unmarked) [Compound I-39], the IC50 is 10 to 100 µM and the pIC50 was less than 5.00.

For `Cn1c(-c2cc3cccnc3n2CC2CC2)nc2cc(C(=O)N3CCC4CNC4C3)ccc21` (centres unmarked) [Compound I-40], the IC50 is 10 to 100 µM and the pIC50 was less than 5.00.

Regarding `Cn1c(-c2cc3cccnc3n2CC2CC2)nc2cc(C(=O)N3CCCC4(CCCN4)C3)ccc21` (centres unmarked) [Compound I-41], the IC50 was 10 to 100 µM and the pIC50 was less than 5.00.

For the compound `Cn1c(-c2cc3cccnc3n2CC2CC2)nc2cc(C(=O)N3CCCC4(CCN4)C3)ccc21` (centres unmarked) [Compound I-42], the IC50 is more than 100 µM and the pIC50 was less than 5.00.

As to `Cn1c(-c2cc3cccnc3n2CC2CC2)nc2cc(C(=O)N3CCC[C@@H]4CNC[C@@H]43)ccc21` [Compound I-43], the IC50 is more than 100 µM and the pIC50 was less than 5.00.

On to `Cn1c(-c2cc3cccnc3n2CC2CC2)nc2cc(C(=O)N3CCC[C@H]4CNC[C@H]43)ccc21` [Compound I-44], for which the IC50 was more than 100 µM and the pIC50 is less than 5.00.

Regarding `Cn1c(-c2cc3cccnc3n2CC2CC2)nc2cc(C(=O)N3CCCC4(CCCNC4)C3)ccc21` (centres unmarked) [Compound I-45], the IC50 is more than 100 µM and the negative logarithm of the IC50 (pIC50) is less than 5.00.

As to `Cn1c(-c2cc3cccnc3n2CC2CC2)nc2cc(C(=O)N3CCCC4(CCNC4)C3)ccc21` (centres unmarked) [Compound I-46], the IC50 is more than 100 µM and the pIC50 was less than 5.00.

Turning to `Cn1c(-c2cc3cccnc3n2CC2CC2)nc2cc(C(=O)N3C4CCC3CC(N)C4)ccc21` (centres unmarked) [Compound I-47], the IC50 is more than 100 µM and the pIC50 was less than 5.00.

With `Cn1c(-c2cc3cccnc3n2CC2CC2)nc2cc(C(=O)N3CCCC4(CCCCN4)C3)ccc21` (centres unmarked) [Compound I-48], the IC50 is 10 to 100 µM and the pIC50 is less than 5.00.

As for `Cn1c(-c2cc3cccnc3n2CC2CC2)nc2cc(C(=O)N3CCC(F)C(N)C3)ccc21` (centres unmarked) [Compound I-49], the IC50 is 1 to 10 µM and the pIC50 was 5.00 to 5.30.

For `Cn1c(-c2cc3cccnc3n2CC2CC2)nc2cc(C(=O)N3CC4CCC(C3)C4N)ccc21` (centres unmarked) [Compound I-50], the IC50 is more than 100 µM and the pIC50 was less than 5.00.

Take `Cn1c(-c2cc3cccnc3n2CC2CC2)nc2cc(C(=O)N3CC(N)CC(F)(F)C3)ccc21` (centres unmarked) [Compound I-51]: the IC50 is 10 to 100 µM and the pIC50 was less than 5.00.

Consider `Cn1c(-c2cc3cccnc3n2CC2CC2)nc2cc(C(=O)N3CCCC4NCCCC43)ccc21` (centres unmarked) [Compound I-53], for which the IC50 is more than 100 µM and the pIC50 is less than 5.00.

`COc1cc(C(=O)N2CC[C@@H](F)[C@H](N)C2)cc2nc(-c3cc4cccnc4n3CC3CC3)n(C)c12` [Compound I-57]: the IC50 is 1 to 10 µM and the pIC50 was 5.30 to 6.00.

On to `COc1cc(C(=O)N2CC[C@H](F)[C@@H](N)C2)cc2nc(-c3cc4cccnc4n3CC3CC3)n(C)c12` [Compound I-58], for which the IC50 was 10 to 100 µM and the pIC50 is less than 5.00.

Regarding `Cn1c(-c2cc3cccnc3n2CC2CC2)nc2cc(C(=O)N3CCC[C@H]4NCC[C@H]43)ccc21` [Compound I-60], the IC50 is 10 to 100 µM and the pIC50 is less than 5.00.

Turning to `Cn1c(-c2cc3cccnc3n2CC2CC2)nc2cc(C(=O)N3CCC[C@@H]4NCC[C@@H]43)ccc21` [Compound I-61], the IC50 is more than 100 µM and the pIC50 was less than 5.00.

Turning to `Cn1c(-c2cc3cccnc3n2CC2CC2)nc2cc(C(=O)N3C4CCC(N)C3CC4)ccc21` (centres unmarked) [Compound I-63], the IC50 was 10 to 100 µM and the pIC50 was less than 5.00.

By pIC50 is commonly meant the negative decadic logarithm of the IC50, by convention in mol/L.
